Values belong to the compound of their own block, whether it stands above or below them.
Experiment: solvent given as SMILES

- absorption maximum (in CC#N): 371 nm
Compound: O=c1oc2ccccc2cc1/C=C/c1ccc([N+](=O)[O-])cc1

- absorption maximum (in O): 565 nm
Compound: CC1=CC(C)=[N+]2C1=C(c1ccccc1)c1c(C)cc(/C=C/c3ccc(O)cc3)n1[B-]2(F)F

- absorption maximum (in CS(C)=O): 365 nm
Compound: CCOC(=O)C1=C(N)n2c(=O)c3ccccc3c(=O)n2C1c1cccs1 (centres undefined)

- absorption maximum (in CC#N): 285 nm
- absorption maximum (in CO): 285 nm
Compound: C1=Cc2ccccc2Cc2ccccc21

- absorption maximum (in ClCCl): 416 nm
Compound: CCCCN(CCCC)c1ccc(C#Cc2cc(C#Cc3ccc(C#N)cc3)c(C#Cc3ccc(C#N)cc3)cc2C#Cc2ccc(N(CCCC)CCCC)cc2)cc1

- absorption maximum (in CC#N): 380 nm
Compound: CC(C)c1ccc(-c2nc(-c3ccccc3)c3ccccn23)cc1

- absorption maximum (in ClC(Cl)Cl): 323 nm
Compound: CN(C)c1ccc(-c2ccc(-c3cc(-c4ccccc4)c(-c4ccccc4)c(-c4ccccc4)c3-c3ccccc3)cc2)cc1

- absorption maximum (in CCO): 377 nm
Compound: O=c1c2cc(F)c(O)cc2sc2cc(O)c(F)cc12

- absorption maximum (in C1CCOC1): 401 nm
- absorption maximum (in CC#N): 398 nm
- absorption maximum (in CO): 391 nm
- absorption maximum (in ClCCl): 400 nm
Compound: COc1cc(-c2nc3c4cccnc4c4ncccc4c3[nH]2)c(OC)cc1/C=C/c1nc2ccccc2[nH]1

- absorption maximum (in ClCCl): 360 nm
Compound: CC(C)c1cccc(C(C)C)c1N1C(=O)c2cccc3c(Oc4ccc(Cl)cc4)ccc(c23)C1=O

- absorption maximum (in CCO): 568 nm
- absorption maximum (in ClCCl): 570 nm
Compound: Ic1ccc(-c2c3ccc(=[N+]4CCCCC4)cc-3oc3cc(N4CCCCC4)ccc23)cc1

- absorption maximum (in ClCCl): 337 nm
Compound: O=C1c2ccccc2-c2nc3c(F)c(F)c(F)c(F)c3n21

- absorption maximum (in ClCCl): 616 nm
Compound: CCCCC1C(=O)c2cc(Oc3ccc(C(C)(C)C)cc3)c3c4c(Oc5ccc(C(C)(C)C)cc5)cc5c6c(cc(Oc7ccc(C(C)(C)C)cc7)c(c7c(Oc8ccc(C(C)(C)C)cc8)cc(c2c37)C1=O)c64)C1=C(C5=O)c2ccc3ccccc3[n+]2[B-](F)(F)O1 (centres undefined)

- absorption maximum (in ClCCl): 325 nm
Compound: c1ccc(-n2c3ccccc3c3cc(-n4ccc5cc(-c6cccc7c6-c6ccccc6C7(c6ccccc6)c6ccccc6)ccc54)ccc32)cc1

- absorption maximum (in C1COCCO1): 709 nm
- absorption maximum (in CCO): 696 nm
- absorption maximum (in CN(C)C=O): 696 nm
- absorption maximum (in ClC(Cl)Cl): 704 nm
Compound: CCCCCCCN1C(=CC2=C([O-])C(=Cc3sc4ccccc4[n+]3CCCCCCC)C2=C(C#N)C#N)Sc2ccccc21

- absorption maximum (in CC#N): 444 nm
Compound: Cc1cc2nc3c(=O)n(C)c(=O)nc-3n(C)c2cc1C

- absorption maximum (in ClCCl): 327 nm
Compound: COC(=O)C1=C(C(=O)OC)C2(c3cc(Cl)ccc3-c3c(Cl)cc(Cl)cc32)C2(/C=C/c3ccccc3)c3cc(OC)c(OC)cc3CCN12 (centres undefined)

- absorption maximum (in ClCCl): 373 nm
Compound: CCCCCCOc1ccc(-c2ccc(/C=C/c3cc(/C=C/c4ccc(-c5ccc(OCCCCCC)cc5)cc4)ncn3)cc2)cc1

- absorption maximum (in CCOC(C)=O): 344 nm
Compound: CCn1c(-c2ccc(-c3ccc4ccc5cccc6ccc3c4c56)cc2)c(-c2ccc3ccccc3c2)c(-c2ccc3ccccc3c2)c1-c1ccc(-c2ccc3ccc4cccc5ccc2c3c45)cc1

- absorption maximum (in C1COCCO1): 340 nm
Compound: CCC1=C(C2=C(C3=C(CC)S(=O)(=O)c4cc(-c5ccc(CO)cc5)ccc43)C(F)(F)C(F)(F)C2(F)F)c2ccc(-c3ccc(CO)cc3)cc2S1(=O)=O

- absorption maximum (in C1COCCO1): 343 nm
Compound: c1ccc(-c2nc(-c3nc(-c4ccccc4)c(-c4ccccc4)o3)oc2-c2ccccc2)cc1

- absorption maximum (in ClCCl): 282 nm
Compound: CC1(C)c2ccccc2N(c2ccc3c(c2)S(=O)(=O)c2cc(N4c5ccccc5C(C)(C)c5ccccc54)ccc2C3(C)C)c2ccccc21

- absorption maximum (in C1CCCCC1): 340 nm
- absorption maximum (in CO): 340 nm
Compound: C(=C\c1nc2ccccc2s1)/c1ccccc1

Continued, compound first:

Compound: COc1ccc(C#Cc2ncc(-c3ccccc3)o2)cc1OC
- absorption maximum (in ClCCl): 330 nm

Compound: Cc1cc(C)c(C2=C3C=C(/C=C/C(=O)OC(C)(C)C)C=[N+]3[B-](F)(F)n3c2ccc3N2CCOCC2)c(C)c1
- absorption maximum (in CC#N): 480 nm
- absorption maximum (in CCCCCC): 532 nm
- absorption maximum (in CN(C)C=O): 485 nm
- absorption maximum (in CO): 483 nm
- absorption maximum (in Cc1ccccc1): 525 nm
- absorption maximum (in ClCCl): 497 nm

Compound: CSc1ccc(-c2nc3sc4ccccc4c3s2)cc1
- absorption maximum (in CS(C)=O): 365 nm

Compound: CC[N+]1(CC)CN2C(=N1)C(C(=O)O)=Cc1c(OC)ccc(OC)c12
- absorption maximum (in O): 368 nm

Compound: C#CCOc1ccc(/C=C/C2=[N+]3C(=C(c4ccccc4)c4c(C)cc(C)n4[B-]3(F)F)C(C)=C2)cc1
- absorption maximum (in CO): 563 nm

Compound: CC(C)(C)c1ccc(C#Cc2cc3ccc4cc(C#Cc5ccc(C(C)(C)C)cc5)cc5ccc(c2)c3c45)cc1
- absorption maximum (in ClCCl): 410 nm

Compound: CCOC(=O)c1c(-c2cc3ccc(OC)cc3oc2=O)nn(-c2ccccc2)c1C(=O)OCC
- absorption maximum (in ClCCl): 337 nm

Compound: O=C(O)C1=C(C(=O)O)C2=C[C@H]3c4ccccc4[C@]2([Se]1)c1ccccc13
- absorption maximum (in ClCCl): 421 nm

Compound: c1csc(-c2cnc(-c3cccs3)c3nonc23)c1
- absorption maximum (in C1CCCCC1): 461 nm
- absorption maximum (in CC(C)=O): 461 nm
- absorption maximum (in CCCCCC): 458 nm
- absorption maximum (in CCCO): 466 nm
- absorption maximum (in CCO): 460 nm
- absorption maximum (in CCOCC): 462 nm
- absorption maximum (in CO): 460 nm
- absorption maximum (in Cc1ccccc1): 465 nm
- absorption maximum (in ClC(Cl)(Cl)Cl): 465 nm
- absorption maximum (in ClC(Cl)Cl): 464 nm
- absorption maximum (in Nc1ccccc1): 474 nm
- absorption maximum (in O=[N+]([O-])c1ccccc1): 476 nm
- absorption maximum (in OCC(O)CO): 471 nm
- absorption maximum (in OCc1ccccc1): 473 nm
- absorption maximum (in c1ccc2ncccc2c1): 477 nm
- absorption maximum (in c1ccccc1): 465 nm
- absorption maximum (in c1ccncc1): 472 nm

Compound: CCCC1=Cc2nc1ccc1[nH]c(cc1CCOC)c1nc(ccc3[nH]c2cc3CCC)C(CCOC)=C1
- absorption maximum (in Cc1ccccc1): 638 nm

Compound: COc1ccc(-c2c3ccccc3c3n2[B-](F)(F)[N+]2=Cc4c5ccccc5c(-c5ccc(OC)cc5)n4[B-](F)(F)[N+]2=C3)cc1
- absorption maximum (in CC#N): 561 nm
- absorption maximum (in CCCCCC): 573 nm
- absorption maximum (in CN(C)C=O): 569 nm
- absorption maximum (in Cc1ccccc1): 579 nm
- absorption maximum (in ClCCl): 571 nm

Compound: Cc1ccc(-c2c3nc(c(-c4ccc(C)cc4)c4ccc([nH]4)c(-c4ccc(OC(=O)C(C)c5cccc(C(=O)c6ccccc6)c5)cc4)c4nc(c(-c5ccc(C)cc5)c5ccc2[nH]5)C=C4)C=C3)cc1 (centres undefined)
- absorption maximum (in ClCCl): 649 nm

Compound: O=[N+]([O-])c1cc(C=C(C#Cc2ccccc2)C#Cc2ccccc2)ccc1C=C(C#Cc1ccccc1)C#Cc1ccccc1
- absorption maximum (in ClC(Cl)Cl): 413 nm

Compound: CC(C)c1cccc(C(C)C)c1-n1c(=O)c2cc3nc(-c4ccccc4)c4cc5c(=O)n(-c6c(C(C)C)cccc6C(C)C)c(=O)c6cc7nc(-c8ccccc8)c8cc(c1=O)c2c1c3c4c(c65)c7c81
- absorption maximum (in ClC(Cl)Cl): 488 nm

Compound: C/C(=C\c1ccc(C)cc1)c1nc2ccccc2o1
- absorption maximum (in C1CCCCC1): 315 nm
- absorption maximum (in CO): 315 nm

Compound: CCn1c2cc(C(C)(C)C)ccc2c2c3nsnc3c3c4ccc(C(C)(C)C)cc4n(CC)c3c21
- absorption maximum (in CN(C)C=O): 430 nm
- absorption maximum (in Cc1ccccc1): 425 nm
- absorption maximum (in ClCCl): 430 nm

Compound: CCCCCOc1cc2oc(=O)c3c4ccc(N(c5ccccc5)c5ccccc5)cc4c4ccc5cccc6c(c1)c2c3c4c56
- absorption maximum (in C1CCOC1): 476 nm

Compound: CCC1(CC)c2cc(N(C)C)ccc2-c2ccc(C(F)(F)F)cc21
- absorption maximum (in C1CCCCC1): 341 nm
- absorption maximum (in CC#N): 302 nm
- absorption maximum (in CCO): 342 nm
- absorption maximum (in CCOCC): 342 nm
- absorption maximum (in CS(C)=O): 350 nm
- absorption maximum (in ClCCl): 344 nm
- absorption maximum (in c1ccccc1): 346 nm

Compound: O=C1c2ccc3c4ccc5c6c(ccc(c7ccc(c2c37)C(=O)N1c1ccc(Cl)cc1)c64)C(=O)N(c1ccc(Cl)cc1)C5=O
- absorption maximum (in CN(C)C=O): 525 nm

Compound: CCN(CC)c1ccc(/C=C/C(=O)c2c(O)cc(C)oc2=O)cc1
- absorption maximum (in CC#N): 476 nm
- absorption maximum (in CCCO): 468 nm
- absorption maximum (in CCO): 488 nm
- absorption maximum (in CCOC(C)=O): 472 nm
- absorption maximum (in Cc1ccccc1): 471 nm
- absorption maximum (in ClCCl): 480 nm

Compound: C(#Cc1ccccc1)C(C#Cc1ccccc1)=c1c2ccccc2c(=C(C#Cc2ccccc2)C#Cc2ccccc2)c2ccccc12
- absorption maximum (in ClC(Cl)Cl): 540 nm

Compound: CCCC1=Cc2nc1ccc1[nH]c(cc1CCC)c1nc(c(OC(C)=O)cc3[nH]c2cc3CCC)C(CCC)=C1
- absorption maximum (in Cc1ccccc1): 645 nm

Compound: O=C([O-])c1ccc(C2=c3cc4c5c(c3Oc3c2cc2c6c3CCCN6CCC2)CCC[N+]=5CCC4)c(C(=O)[O-])c1
- absorption maximum (in CCO): 573 nm
- absorption maximum (in O): 574 nm

Compound: CC(C)(C)c1ccc(-c2cnc3cccc(-c4ccccc4)n23)cc1
- absorption maximum (in ClCCl): 339 nm

Compound: CC(C)(C)c1ccc(-c2c3c(c(-c4ccc(C(C)(C)C)cc4)c4cc5ccccc5cc24)Cc2c(c(-c4ccc(C(C)(C)C)cc4)c4cc5ccccc5cc4c2-c2ccc(C(C)(C)C)cc2)C3)cc1
- absorption maximum (in ClCCl): 393 nm

Compound: CCCC1=Cc2nc1ccc1[nH]c(cc1CCC)c1nc(c(OC(=O)CCCC(=O)OC(C)(C)C)cc3[nH]c2cc3CCC)C(CCC)=C1
- absorption maximum (in Cc1ccccc1): 645 nm

Compound: CSc1nccc(/C=C/c2ccc(N(c3ccccc3)c3ccc(/C=C/c4ccnc(SC)n4)cc3)cc2)n1
- absorption maximum (in ClCCl): 430 nm

Compound: COc1ccc(/C=C/C(=O)c2ccccc2O)cc1OC
- absorption maximum (in C1CCOC1): 350 nm
- absorption maximum (in C1COCCO1): 354 nm
- absorption maximum (in CC#N): 352 nm
- absorption maximum (in CCCO): 360 nm
- absorption maximum (in CCO): 359 nm
- absorption maximum (in CN(C)C=O): 362 nm
- absorption maximum (in CO): 357 nm
- absorption maximum (in CS(C)=O): 365 nm
- absorption maximum (in ClC(Cl)Cl): 355 nm
- absorption maximum (in ClCCl): 353 nm

Compound: CCOC(=O)c1cc(C(=O)OCC)c2cccc(OCc3ccccc3)c2n1
- absorption maximum (in CCO): 366 nm

Compound: C(/C=C/c1ccc(N(c2ccccc2)c2ccccc2)cc1)=C\c1ccncc1
- absorption maximum (in C1COCCO1): 395 nm
- absorption maximum (in CC#N): 396 nm
- absorption maximum (in CCCCCCC): 393 nm
- absorption maximum (in CO): 399 nm

Compound: Cc1ccc(C)n1-c1ccc(C#N)cc1
- absorption maximum (in C1CCOC1): 275 nm
- absorption maximum (in CCCCCC): 275 nm
- absorption maximum (in CCCCCl): 275 nm
- absorption maximum (in CCOCC): 275 nm

Compound: Cc1cc(-c2nc(-c3ccccc3)nc(-c3ccccc3)n2)ccc1-n1c2ccccc2c2cc3c(cc21)C1c2ccccc2C3c2ccccc21
- absorption maximum (in Cc1ccccc1): 364 nm
